For 19 compounds, VEGF-C and IC50 results are on record in patent publication US7238813B2, “Chemical compounds” (Smithkline Beecham Corporation, priority 2000, dated 2007).

SMILES strings stand for the structures. pIC50: −log10 of the molar value. Counter-ions that a name gives are not always drawn.

In test [1] the test system is Human umbilical cord endothelial cells (HUVEC). Kind of test: VEGF-driven cellular proliferation assay: BrdU incorporation assay (VEGF-C). It is filed as cell-based. Also noted: key to VEGF-C: + = pIC50 of 5.0–6.0; ++ = pIC50 of 6.0–7.0; +++ = pIC50 of > 7.0; − = a negative or inconclusive result. Particulars: for pIC50: Homo sapiens. The method, boiled down: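 HUVEC (≤6 passages) were plated at 5000 cells/well and exposed to compound 30 min in serum-free M199 containing 0.6% DMSO. Medium with 20 ng/ml VEGF was then added for 24 h, followed by a 24 h pulse with 10 μM BrdU and ELISA read at 450 nm. IC50 from nonlinear regression of percent inhibition was expressed as pIC50.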
(Dividing cells build labelled thymidine or BrdU into new DNA.)

Another test concerns the target T1, GST-VEGFR2 (Homo sapiens, UniProt P35968).
T1 construct: GST-VEGFR2, baculovirus expressed recombinant constructs of the intracellular domains of human TIE2 tagged by GST; made in house
The test can be described thus: VEGF-R2 enzyme assay (VEGF-E), LANCE method. The test is classed as biochemical. Particulars: 75 μM ATP. (In general: TR-FRET usually uses a lanthanide donor and a delayed reading to cut background.)

The target in test [2] is T2, TIE2 intracellular domain/c-fms extracellular domain (TIE2/c-fms) chimeric protein expressing mouse 3T3 cells (Homo sapiens, UniProt Q02763).
T2 construct: a TIE2 intracellular domain/c-fms extracellular domain (TIE2/c-fms) chimeric protein; expressed in transfected cells; host or cells: mouse 3T3 cells
The test can be described thus: TIE-2 autophosphorylation assay (TIE2-C), ELISA. It is filed as cell-based. The note with it: TIE2/c-fms 3T3 cells, MCSF activation. The gist of the method: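 Mouse 3T3 cells expressing TIE2 intracellular/c-fms extracellular chimera treated with compound for 1 hr in serum-free DMEM (0.1% DMSO), then stimulated with MCSF. Lysates captured on anti-c-fms plates overnight at 4 °C; phosphotyrosine detected by biotin-PT66/HRP-streptavidin, OD450. IC50 by nonlinear regression, reported as pIC50.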
A general note: In an ELISA, binding on a coated surface is turned into a signal by an enzyme label.

Test [3] deals with T3, GST-TIE2 (intracellular domains of human TIE2) (Homo sapiens, UniProt Q02763).
T3 construct: made in house
Kind of test: TIE-2 enzyme assay (TIE2-E), LANCE method. The test is classed as biochemical. The note with it: 80 uM ATP. The gist of the method: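 Baculovirus GST-TIE2 (human intracellular domain, aa 762–1104) preactivated 30 min at RT with 2 mM ATP, then reacted 30 min at RT with 1 μM D1-15 peptide, 80 uM ATP, 10 mM MgCl2, pH 7.4, 2.4% DMSO. EDTA-stopped; LANCE Eu-anti-pTyr/streptavidin-APC read-out. IC50 by nonlinear regression, reported as pIC50.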

T3 sequence (Q02763 762-1104): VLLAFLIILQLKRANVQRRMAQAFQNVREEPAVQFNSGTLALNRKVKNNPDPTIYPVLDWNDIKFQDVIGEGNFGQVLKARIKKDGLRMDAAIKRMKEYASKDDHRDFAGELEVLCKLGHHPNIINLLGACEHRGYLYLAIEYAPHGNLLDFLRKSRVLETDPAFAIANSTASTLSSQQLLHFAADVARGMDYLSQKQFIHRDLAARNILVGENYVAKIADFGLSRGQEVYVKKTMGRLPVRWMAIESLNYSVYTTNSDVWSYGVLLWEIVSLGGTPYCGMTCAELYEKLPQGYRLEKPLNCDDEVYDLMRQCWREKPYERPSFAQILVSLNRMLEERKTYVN
T2 sequence (Q02763 770-1124 limits assumed, change not shown): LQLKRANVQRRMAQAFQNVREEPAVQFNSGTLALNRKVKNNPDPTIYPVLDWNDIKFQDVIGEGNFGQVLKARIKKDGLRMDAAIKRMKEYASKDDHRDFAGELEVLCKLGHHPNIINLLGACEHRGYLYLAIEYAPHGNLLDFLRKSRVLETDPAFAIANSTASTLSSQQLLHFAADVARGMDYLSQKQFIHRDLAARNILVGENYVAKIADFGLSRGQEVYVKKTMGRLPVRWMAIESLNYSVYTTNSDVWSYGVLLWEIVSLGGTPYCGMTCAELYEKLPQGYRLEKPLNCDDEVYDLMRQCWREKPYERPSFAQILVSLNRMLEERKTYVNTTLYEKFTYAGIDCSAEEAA
T1 sequence (P35968 786-1356 limits assumed): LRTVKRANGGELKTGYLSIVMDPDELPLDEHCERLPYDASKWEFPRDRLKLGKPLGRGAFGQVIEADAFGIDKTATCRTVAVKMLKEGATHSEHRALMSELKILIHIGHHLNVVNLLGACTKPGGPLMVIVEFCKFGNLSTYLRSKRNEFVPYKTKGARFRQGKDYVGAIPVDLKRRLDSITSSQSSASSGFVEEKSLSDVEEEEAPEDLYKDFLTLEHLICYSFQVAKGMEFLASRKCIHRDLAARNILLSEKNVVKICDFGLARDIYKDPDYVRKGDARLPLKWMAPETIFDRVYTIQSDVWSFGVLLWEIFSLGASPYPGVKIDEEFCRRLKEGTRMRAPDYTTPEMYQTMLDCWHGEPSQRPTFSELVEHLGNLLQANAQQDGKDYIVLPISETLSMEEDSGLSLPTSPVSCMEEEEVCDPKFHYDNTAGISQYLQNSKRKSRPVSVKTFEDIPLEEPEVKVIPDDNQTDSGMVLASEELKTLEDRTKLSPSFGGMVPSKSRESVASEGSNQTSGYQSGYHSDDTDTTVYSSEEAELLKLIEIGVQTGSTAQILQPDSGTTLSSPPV

As to `COC(=O)Nc1nc2cc([S+]([O-])c3ccc(NC(=O)Nc4cc(C(F)(F)F)ccc4F)cc3)ccc2[nH]1` (stereo not shown) [Example 13, Methyl N-(5-(4-((2-fluoro-5-(trifluoromethyl)phenyl)aminocarbonylamino)phenylsulfinyl)-1H-benzimidazol-2-yl)carbamate], the VEGF-C result in test [1] is given as “−”. The negative-log IC50 (pIC50) (in general, −log10 of the IC50, conventionally taken in molar units) on GST-VEGFR2 was 6.00 to 7.00; in test [2], 6.00 to 7.00; in test [3] it was more than 7.00.
As to `COC(=O)Nc1nc2cc(Oc3ccc(NC(=O)Nc4cc(C)ccc4F)cc3)ccc2[nH]1.Cl` [Example 55, Methyl N-(5-(4-((2-fluoro-5-methylphenyl)aminocarbonylamino)phenoxy)-1H-benzimidazol-2-yl)carbamate hydrochloride], in test [1], the VEGF-C entry is on record as “−”. Moreover, the pIC50 (against GST-VEGFR2; in test [2]; in test [3]) was more than 7.00 each time.
`COC(=O)Nc1nc2nc(Oc3ccc(NC(=O)Nc4cc(C(F)(F)F)ccc4F)cc3)ccc2[nH]1` [Example 69, dihydrochloride]: the pIC50 was 6.00 to 7.00 in test [1], more than 7.00 against GST-VEGFR2, more than 7.00 in test [2] and more than 7.00 in test [3].
For `COC(=O)Nc1nc2cc(Oc3cccc(NC(=O)Nc4cccc(Cl)c4)c3)ccc2[nH]1` [Example 14, Methyl (5-(3-((3-Chlorophenyl)aminocarbonylamino)phenoxy)-1H-benzimidazol-2-yl)carbamate hydrochloride], the pIC50 in test [1] was 6.00 to 7.00; on GST-VEGFR2, more than 7.00; in test [2] it was 6.00 to 7.00; in test [3], 6.00 to 7.00.
Take `Cn1cnc(CC(=O)Nc2nc3cc(Oc4ccc(NC(=O)Nc5cc(C(F)(F)F)ccc5F)cc4)ccc3[nH]2)c1` [Example 97, N-(5-(4-((2-Fluoro-5-(trifluoromethyl)phenyl)aminocarbonylamino)phenoxy)-1H-benzimidazol-2-yl)(1methyl-1H-imidazol-4-yl)acetamide]: the negative-log IC50 (pIC50) (in test [1]; against GST-VEGFR2; in test [2]; in test [3]) was more than 7.00 throughout.
With `COC(=O)Nc1nc2ccc(Sc3ccc(NC(=O)Nc4cccc(C(F)(F)F)c4)cc3)cc2[nH]1` [Example 2, Methyl N-(5-(4-((3-(trifluoromethyl)phenyl)aminocarbonylamino)phenylthio)-1H-benzimidazol-2-yl)carbamate], the negative-log IC50 (pIC50) in test [1] is 5.00 to 6.00; against GST-VEGFR2 it was more than 7.00; in test [2], more than 7.00; in test [3], more than 7.00.
For `COC(=O)Nc1nc2cc(Oc3ccc(NC(=O)Nc4cc(C(F)(F)F)ccc4F)cn3)ccc2[nH]1` [Example 37, Methyl N-(5-(5-((2-fluoro-5-(trifluoromethyl)phenyl)aminocarbonylamino)-2-pyridyloxy)-1H-benzimidazol-2-yl)carbamate], in test [1], the VEGF-C entry is reported as “−”. Also, the negative-log IC50 (pIC50) (on GST-VEGFR2; in test [2]; in test [3]) was more than 7.00 throughout.
Consider `COC(=O)Nc1nc2cc(Oc3ccc(NC(=O)Nc4ccc(Cl)c(C(F)(F)F)c4)cc3)ccc2[nH]1` [Example 44, Methyl N-(5-(4-((4-chloro-3-(trifluoromethyl)phenyl)aminocarbonylamino)phenoxy)-1H-benzimidazol-2-yl)carbamate], for which, in test [1], the VEGF-C entry is on record as “−”. In addition, the pIC50 at GST-VEGFR2 was more than 7.00; in test [2], 6.00 to 7.00; in test [3] it was more than 7.00.
Consider `O=C(Nc1ccc(Oc2ccc3[nH]c(NC(=O)c4ccc(-n5ccnc5)cc4)nc3c2)cc1)Nc1cc(C(F)(F)F)ccc1F` [Example 91, N-(5-(4-((2-Fluoro-5-(trifluoromethyl)phenyl)aminocarbonylamino)phenoxy)-1H-benzimidazol-2-yl)-4-(1H-imidazol-1-yl)benzamide], for which the VEGF-C entry in test [1] is listed as “−”. In addition, the pIC50 (on GST-VEGFR2; in test [2]; in test [3]) was more than 7.00 in each case.
With `COC(=O)Nc1nc2ccc(Oc3ccc(NC(=O)Nc4cc(C(F)(F)F)ccc4Cl)cc3)nc2[nH]1` [Example 72, Methyl N-(5-(4-((2-chloro-5-(trifluoromethyl)phenyl)aminocarbonylamino)phenoxy)-3,4-diaza-1H-indole-2-yl)carbamate dihydrochloride], the pIC50 is 5.00 to 6.00 in test [1], more than 7.00 at GST-VEGFR2, more than 7.00 in test [2] and more than 7.00 in test [3].
Consider `COC(=O)Nc1nc2cc(Oc3ccc(NC(=O)Nc4cc(F)ccc4F)cc3)ccc2[nH]1` [Example 56, Methyl N-(5-(4-((2,5-difluorophenyl)aminocarbonylamino)phenoxy)-1H-benzimidazol-2-yl)carbamate], for which the VEGF-C entry in test [1] is listed as “−”. Further, the negative logarithm of the IC50 (pIC50) on GST-VEGFR2 was more than 7.00; in test [2], more than 7.00; in test [3], 6.00 to 7.00.
Consider `O=C(CCc1cccnc1)Nc1nc2cc(Oc3ccc(NC(=O)Nc4cc(C(F)(F)F)ccc4F)cc3)ccc2[nH]1` [Example 88, N-(5-(4-((2-Fluoro-5-(trifluoromethyl)phenyl)aminocarbonylamino)phenoxy)-1H-benzimidazol-2-yl)-3-(pyridine-3-yl)propionamide], for which the pIC50 (in test [1]; against GST-VEGFR2; in test [2]; in test [3]) was more than 7.00 each time.
Turning to `Cc1ccc(S(=O)(=O)n2c(N)nc3ccc(Oc4ccc(NC(=O)Nc5cc(C(F)(F)F)ccc5F)cc4)cc32)cc1` [Example 24, 6-(4-((2-Fluoro-5-(trifluoromethyl)phenyl)aminocarbonylamino)phenoxy)-1-(4-(methyl)phenylsulfonyl)-1H-benzimidazol-2-ylamine], in test [1], the VEGF-C result was “−”. Also, the negative-log IC50 (pIC50) against GST-VEGFR2 is more than 7.00; in test [2] it was 6.00 to 7.00; in test [3], more than 7.00.
As to `O=C(Nc1ccc(Oc2ccc3[nH]c(NC(=O)c4c[nH]cn4)nc3c2)cc1)Nc1cc(C(F)(F)F)ccc1F` [Example 98, N-(5-(4-((2-Fluoro-5-(trifluoromethyl)phenyl)aminocarbonylamino)phenoxy)-1H-benzimidazol-2-yl)(1H-imidazole-4-carboxamide)dihydrochloride], the pIC50 in test [1] was 6.00 to 7.00; against GST-VEGFR2, more than 7.00; in test [2], more than 7.00; in test [3], more than 7.00.
Consider `CC(C)(C)OC(=O)Nc1nc2cc(Oc3ccc(NC(=O)Nc4cc(C(F)(F)F)ccc4F)cc3)ccc2[nH]1` [Example 18, t-Butyl N-(5-(4-((2-fluoro-5-(trifluoromethyl)phenyl)aminocarbonylamino)phenoxy)-1H-benzimidazol-2-yl)carbamate], for which the pIC50 (in test [1]; against GST-VEGFR2; in test [2]; in test [3]) was more than 7.00 in each case.
Take `COC(=O)Nc1nc2cc(Oc3cccc(NC(=O)Nc4cc(C(F)(F)F)ccc4F)c3)ccc2[nH]1` [Example 15, Methyl N-(5-(3-((2-Fluoro-5-(trifluoromethyl)phenyl)aminocarbonylamino)phenoxy)-1H-benzimidazol-2-yl)carbamate]: the pIC50 was 6.00 to 7.00 in test [1], more than 7.00 on GST-VEGFR2, more than 7.00 in test [2] and more than 7.00 in test [3].
Regarding `COC(=O)Nc1nc2ccc(Oc3ccc(NC(=O)Nc4cc(C(F)(F)F)ccc4F)cc3)cc2s1` [Example 64, Methyl N-(6-(4-((6-fluoro-3-(trifluoromethyl)phenyl)aminocarbonylamino)phenoxy)-benzthiazol-2-yl)carbamate], the pIC50 (in test [1]; at GST-VEGFR2; in test [2]; in test [3]) was more than 7.00 in each case.
For `COCCOCCOCC(=O)Nc1nc2ccc(Oc3ccc(NC(=O)Nc4cc(C(F)(F)F)ccc4F)cc3)cc2[nH]1` [Example 33, N-(5-(4-((2-Fluoro-5-(trifluoromethyl)phenyl)aminocarbonylamino)phenoxy)-1H-benzimidazol-2-yl)(2-(2-(methoxy)ethoxy)ethoxy)acetamide], the negative-log IC50 (pIC50) (in test [1]; at GST-VEGFR2; in test [2]; in test [3]) was more than 7.00 throughout.
For `COC(=O)Nc1nc2cc(Oc3ccc(NC(=O)Nc4cc([N+](=O)[O-])ccc4C)cc3)ccc2[nH]1` [Example 47, Methyl N-(5-(4-((2-methyl-5-nitrophenyl)aminocarbonylamino)phenoxy)-1H-benzimidazol-2-yl)carbamate], in test [1], the VEGF-C entry was “−”. Besides, the negative logarithm of the IC50 (pIC50) (on GST-VEGFR2; in test [2]; in test [3]) was more than 7.00 throughout.
